# In PubChem BioAssay (NCI):
#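 Where inhibition never reached the appropriate level, the endpoint shown equals the highest concentration tested. Otherwise, values were interpolated linearly from a five-concentration, 48-hour dose response in 96-well plates. TGI is the concentration that stops growth completely.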
# How the values were obtained:
# Assay in all cases: NCI tumour cell line growth inhibition, 48 h
# DMS 273 small cell lung = tested on: DMS 273 small cell lung
# RPMI-8226 leukemia = tested on: RPMI-8226 leukemia
# UACC-62 melanoma = tested on: UACC-62 melanoma
# KM20L2 colon = tested on: KM20L2 colon
# DLD-1 colon = tested on: DLD-1 colon
# MOLT-4 leukemia = tested on: MOLT-4 leukemia
# HT29 colon = tested on: HT29 colon
# OVCAR-5 ovarian = tested on: OVCAR-5 ovarian
# OVCAR-4 ovarian = tested on: OVCAR-4 ovarian
# SK-OV-3 ovarian = tested on: SK-OV-3 ovarian
# SF-268 CNS = tested on: SF-268 CNS
# M19-MEL melanoma = tested on: M19-MEL melanoma
# SNB-75 CNS = tested on: SNB-75 CNS
# LOX IMVI melanoma = tested on: LOX IMVI melanoma
# HOP-92 NSCLC = tested on: HOP-92 NSCLC
# HCT-116 colon = tested on: HCT-116 colon
# IGROV1 ovarian = tested on: IGROV1 ovarian
# NCI/ADR-RES ovarian = tested on: NCI/ADR-RES ovarian
# DMS 114 small cell lung = tested on: DMS 114 small cell lung
# CAKI-1 renal = tested on: CAKI-1 renal
# SW-620 colon = tested on: SW-620 colon
# UACC-257 melanoma = tested on: UACC-257 melanoma
# P388/ADR leukemia = tested on: P388/ADR leukemia
# RXF 393 renal = tested on: RXF 393 renal
# UO-31 renal = tested on: UO-31 renal
# SF-295 CNS = tested on: SF-295 CNS
# HOP-18 NSCLC = tested on: HOP-18 NSCLC
# OVCAR-3 ovarian = tested on: OVCAR-3 ovarian
# KM12 colon = tested on: KM12 colon
# K-562 leukemia = tested on: K-562 leukemia
# SF-539 CNS = tested on: SF-539 CNS
# HL-60(TB) leukemia = tested on: HL-60(TB) leukemia
# SK-MEL-28 melanoma = tested on: SK-MEL-28 melanoma
# SK-MEL-2 melanoma = tested on: SK-MEL-2 melanoma
# SN12K1 renal = tested on: SN12K1 renal
# NCI-H23 lung = tested on: NCI-H23 lung
# SNB-78 CNS = tested on: SNB-78 CNS
# HCT-15 colon = tested on: HCT-15 colon
# NCI-H226 lung = tested on: NCI-H226 lung
# XF 498 CNS = tested on: XF 498 CNS
# P388 leukemia = tested on: P388 leukemia
# MCF7 breast = tested on: MCF7 breast
# EKVX NSCLC = tested on: EKVX NSCLC
# CCRF-CEM leukemia = tested on: CCRF-CEM leukemia
# HCC-2998 colon = tested on: HCC-2998 colon
# SNB-19 CNS = tested on: SNB-19 CNS
# SN12C renal = tested on: SN12C renal
# OVCAR-8 ovarian = tested on: OVCAR-8 ovarian
# SK-MEL-5 melanoma = tested on: SK-MEL-5 melanoma
# U251 CNS = tested on: U251 CNS
# HOP-62 NSCLC = tested on: HOP-62 NSCLC
# MALME-3M melanoma = tested on: MALME-3M melanoma
# COLO 205 colon = tested on: COLO 205 colon
# NCI-H460 lung = tested on: NCI-H460 lung
# NCI-H522 lung = tested on: NCI-H522 lung
# A549 NSCLC = tested on: A549 NSCLC
# M14 melanoma = tested on: M14 melanoma
# SR leukemia = tested on: SR leukemia
# 786-0 renal = tested on: 786-0 renal
# MDA-N = tested on: MDA-N
# HS 578T breast = tested on: HS 578T breast
# BT-549 breast = tested on: BT-549 breast
# ACHN renal = tested on: ACHN renal
# T-47D breast = tested on: T-47D breast
# MDA-MB-231 breast = tested on: MDA-MB-231 breast
# TK-10 renal = tested on: TK-10 renal
# A498 renal = tested on: A498 renal
# MDA-MB-435 = tested on: MDA-MB-435
# DU-145 prostate = tested on: DU-145 prostate
# PC-3 prostate = tested on: PC-3 prostate
structure (smiles),measurement,setting,value
NC1(C(=O)O)CCCC1,TGI,DMS 273 small cell lung,> 625 µM
same,TGI,RPMI-8226 leukemia,> 625 µM
same,TGI,UACC-62 melanoma,> 625 µM
same,TGI,KM20L2 colon,> 625 µM
same,TGI,DLD-1 colon,> 625 µM
same,TGI,MOLT-4 leukemia,> 625 µM
same,TGI,HT29 colon,> 625 µM
same,TGI,OVCAR-5 ovarian,> 625 µM
same,TGI,OVCAR-4 ovarian,> 625 µM
same,TGI,SK-OV-3 ovarian,> 625 µM
same,TGI,SF-268 CNS,> 370 µM
same,TGI,M19-MEL melanoma,> 625 µM
same,TGI,SNB-75 CNS,> 625 µM
same,TGI,LOX IMVI melanoma,> 625 µM
same,TGI,HOP-92 NSCLC,> 625 µM
same,TGI,HCT-116 colon,> 625 µM
same,TGI,IGROV1 ovarian,> 625 µM
same,TGI,NCI/ADR-RES ovarian,> 625 µM
same,TGI,DMS 114 small cell lung,> 625 µM
same,TGI,CAKI-1 renal,> 625 µM
same,TGI,SW-620 colon,> 625 µM
same,TGI,UACC-257 melanoma,> 625 µM
same,TGI,P388/ADR leukemia,> 625 µM
same,TGI,RXF 393 renal,> 625 µM
same,TGI,UO-31 renal,> 625 µM
same,TGI,SF-295 CNS,> 625 µM
same,TGI,HOP-18 NSCLC,> 625 µM
same,TGI,OVCAR-3 ovarian,> 62.5 µM
same,TGI,KM12 colon,> 625 µM
same,TGI,K-562 leukemia,> 625 µM
same,TGI,SF-539 CNS,> 625 µM
same,TGI,HL-60(TB) leukemia,> 625 µM
same,TGI,SK-MEL-28 melanoma,> 625 µM
same,TGI,SK-MEL-2 melanoma,> 625 µM
same,TGI,SN12K1 renal,> 625 µM
same,TGI,NCI-H23 lung,> 625 µM
same,TGI,SNB-78 CNS,> 444 µM
same,TGI,HCT-15 colon,> 625 µM
same,TGI,NCI-H226 lung,> 625 µM
same,TGI,XF 498 CNS,6.25 µM
same,TGI,P388 leukemia,> 625 µM
same,TGI,MCF7 breast,> 625 µM
same,TGI,EKVX NSCLC,> 625 µM
same,TGI,CCRF-CEM leukemia,> 625 µM
same,TGI,HCC-2998 colon,> 625 µM
same,TGI,SNB-19 CNS,> 99.1 µM
same,TGI,SN12C renal,> 625 µM
same,TGI,OVCAR-8 ovarian,> 625 µM
same,TGI,SK-MEL-5 melanoma,> 625 µM
same,TGI,U251 CNS,> 625 µM
same,TGI,HOP-62 NSCLC,> 625 µM
same,TGI,MALME-3M melanoma,> 625 µM
same,TGI,COLO 205 colon,> 625 µM
same,TGI,NCI-H460 lung,> 625 µM
same,TGI,NCI-H522 lung,> 625 µM
same,TGI,A549 NSCLC,> 625 µM
CCCCCCCCCCCCCCCCCCOCC(COP(=O)([O-])OCC[N+](C)(C)C)OC (stereo unspecified),TGI,DMS 273 small cell lung,10.5 µM
same,TGI,RPMI-8226 leukemia,45.7 µM
same,TGI,UACC-62 melanoma,47.1 µM
same,TGI,KM20L2 colon,9.02 µM
same,TGI,DLD-1 colon,17.7 µM
same,TGI,MOLT-4 leukemia,29.3 µM
same,TGI,HT29 colon,23.5 µM
same,TGI,OVCAR-5 ovarian,37 µM
same,TGI,OVCAR-4 ovarian,> 52.6 µM
same,TGI,SK-OV-3 ovarian,46 µM
same,TGI,SF-268 CNS,51.8 µM
same,TGI,M19-MEL melanoma,16.8 µM
same,TGI,SNB-75 CNS,37.2 µM
same,TGI,LOX IMVI melanoma,45 µM
same,TGI,HOP-92 NSCLC,25.4 µM
same,TGI,M14 melanoma,> 63.5 µM
same,TGI,HCT-116 colon,43.5 µM
same,TGI,SR leukemia,> 60.1 µM
same,TGI,IGROV1 ovarian,18.7 µM
same,TGI,NCI/ADR-RES ovarian,64.1 µM
same,TGI,DMS 114 small cell lung,26.8 µM
same,TGI,CAKI-1 renal,44.3 µM
same,TGI,786-0 renal,> 71.7 µM
same,TGI,SW-620 colon,47.9 µM
same,TGI,UACC-257 melanoma,30.5 µM
same,TGI,P388/ADR leukemia,20 µM
same,TGI,RXF 393 renal,42.2 µM
same,TGI,UO-31 renal,52.7 µM
same,TGI,SF-295 CNS,29.7 µM
same,TGI,HOP-18 NSCLC,27.5 µM
same,TGI,OVCAR-3 ovarian,54.5 µM
same,TGI,KM12 colon,10.4 µM
same,TGI,K-562 leukemia,75.2 µM
same,TGI,SF-539 CNS,> 70.2 µM
same,TGI,MDA-N,> 100 µM
same,TGI,HL-60(TB) leukemia,13.6 µM
same,TGI,SK-MEL-28 melanoma,57.9 µM
same,TGI,SK-MEL-2 melanoma,54.9 µM
same,TGI,SN12K1 renal,24.3 µM
same,TGI,NCI-H23 lung,61.6 µM
same,TGI,HS 578T breast,> 100 µM
same,TGI,SNB-78 CNS,49.2 µM
same,TGI,BT-549 breast,> 100 µM
same,TGI,HCT-15 colon,11.3 µM
same,TGI,NCI-H226 lung,44.7 µM
same,TGI,XF 498 CNS,28.8 µM
same,TGI,P388 leukemia,11 µM
same,TGI,MCF7 breast,> 54.3 µM
same,TGI,EKVX NSCLC,70.3 µM
same,TGI,CCRF-CEM leukemia,28 µM
same,TGI,ACHN renal,> 100 µM
same,TGI,HCC-2998 colon,9.93 µM
same,TGI,SNB-19 CNS,47.1 µM
same,TGI,T-47D breast,> 100 µM
same,TGI,SN12C renal,34.6 µM
same,TGI,OVCAR-8 ovarian,57.7 µM
same,TGI,SK-MEL-5 melanoma,62.9 µM
same,TGI,MDA-MB-231 breast,> 100 µM
same,TGI,U251 CNS,42.8 µM
same,TGI,TK-10 renal,41.5 µM
same,TGI,HOP-62 NSCLC,> 58.9 µM
same,TGI,A498 renal,45.8 µM
same,TGI,MALME-3M melanoma,46.8 µM
same,TGI,MDA-MB-435,> 100 µM
same,TGI,DU-145 prostate,> 100 µM
same,TGI,COLO 205 colon,21.2 µM
same,TGI,PC-3 prostate,57.2 µM
same,TGI,NCI-H460 lung,17.6 µM
same,TGI,NCI-H522 lung,32.7 µM
same,TGI,A549 NSCLC,49.3 µM
